Experimental data published in publication PMC11500415, “Chemical inhibition of stomatal differentiation by perturbation of the master-regulatory bHLH heterodimer via an ACT-Like domain” (Nature Communications, 2024).
“And” between values parts separate entries of the source, which are not always exact repeats. Equal entries are not always repeated. Where two headings read alike, the source gives them in different places.

Tests used:
Test in all cases: BLI direct binding
Set-up in all cases: species or system A. thaliana
[1] = target: T1, FAMA (Arabidopsis thaliana, UniProt Q56YJ8)
T1 construct: ΔNFAMA (190-414); made in house; host or cells: E. coli BL21
T1 sequence (Q56YJ8 190-414): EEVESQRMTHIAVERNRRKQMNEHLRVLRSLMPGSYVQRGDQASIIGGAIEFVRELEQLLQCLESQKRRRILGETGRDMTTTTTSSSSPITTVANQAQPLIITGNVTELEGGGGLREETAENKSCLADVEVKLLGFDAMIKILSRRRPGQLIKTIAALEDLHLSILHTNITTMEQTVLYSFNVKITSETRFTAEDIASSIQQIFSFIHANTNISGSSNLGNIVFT

[2] = target: T2, MUTE bHLH domain (Arabidopsis thaliana, UniProt Q9M8K6); details: for Response: BLI, GST-MUTE_bHLH on Anti-GST sensor, unit assumed
T2 construct: MUTEΔC (1-114); made in house; host or cells: E. coli BL21
T2 sequence (Q9M8K6 1-114): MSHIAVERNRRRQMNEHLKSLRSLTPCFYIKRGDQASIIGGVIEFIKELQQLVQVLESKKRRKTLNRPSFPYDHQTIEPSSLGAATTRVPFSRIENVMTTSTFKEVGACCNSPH

[3] = target: T3, SPCH_ACTL (Arabidopsis thaliana, UniProt Q700C7)
T3 construct: SPCH-ACTL (285-364); GST (N, cleaved yes); made in house; host or cells: E. coli BL21
T3 sequence (Q700C7 285-364): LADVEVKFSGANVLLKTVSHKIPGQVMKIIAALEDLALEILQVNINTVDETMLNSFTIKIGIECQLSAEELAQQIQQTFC

[4] = FAMA loaded on Anti-GST sensor, fit per sensor, Stomid Conc. (mM) 200-3.12, rep-1, rep-2
[5] = FAMA, Conc. (mM) 3.12, rep-1, rep-2
[6] = FAMA, Conc. (mM) 6.25, rep-1, rep-2
[7] = FAMA, Conc. (mM) 12.5, rep-1, rep-2
[8] = FAMA, Conc. (mM) 25, rep-1, rep-2
[9] = FAMA, Conc. (mM) 50, rep-1, rep-2
[10] = FAMA, Conc. (mM) 100, rep-1, rep-2
[11] = FAMA, Conc. (mM) 200, rep-1, rep-2

For O=C1C(c2ccccc2)=NC(NS(=O)(=O)c2ccccc2)(c2ccccc2)N1S(=O)(=O)c1ccccc1 (stereo not shown) [Stomidazolone], the Kd ([1]; BLI steady state, FAMA, read-out: KD (SS)) was 0.0782 ± 0.0065 mM, the “kdis” value [1, 4] was 0.177 s⁻¹ and 0.176 s⁻¹ and 0.175 s⁻¹ and 0.178 s⁻¹ and 0.171 s⁻¹ and 0.18 s⁻¹ and the “kon” value [1, 4] was 2080 M⁻¹ s⁻¹. The Kd ([1]; FAMA loaded on Anti-GST sensor, fit per sensor, Stomid Conc. (mM) 200-3.12, rep-1, rep-2, read-out: KD) was 0.0867 mM and 0.0859 mM and 0.0882 mM and 0.0891 mM and 0.0863 mM and 0.0866 mM and 0.0851 mM and 0.0817 mM and 0.0856 mM and 0.0903 mM and 0.0845 mM, the RMax [1, 5] was 0.095 and 0.0512 and the “Req/Rmax(%)” value [1, 5] was 100%. For the same compound, the Response [1, 5] was 0.0912 and 0.0512, the “kobs” value [1, 5] was 0.00577 s⁻¹ and 0.0035 s⁻¹ and the RMax [1, 6] was 0.108 and 0.0812. The “Req/Rmax(%)” value [1, 6] was 97% and 100%, the Response [1, 6] was 0.1071 and 0.0812 and the RMax [1, 7] was 0.124 and 0.1621. For the same compound, the Response [1, 7] was 0.1223 and 0.1621, the RMax [1, 8] was 0.165 and 0.1913 and the Response [1, 8] was 0.1623 and 0.1913. The RMax [1, 9] was 0.251 and 0.2843, the “Req/Rmax(%)” value [1, 9] was 89% and the Response [1, 9] was 0.2461 and 0.2843. The RMax [1, 10] was 0.435 and 0.3712, the Response [1, 10] was 0.4312 and 0.3712 and the RMax [1, 11] was 0.553 and 0.5072. The “Req/Rmax(%)” value [1, 11] was 98%, the Response [1, 11] was 0.5523 and 0.5072 and the koff ([1]; read-out: kdis(1/s), FAMA loaded on Anti-GST sensor, fit per sensor, Stomid Conc. (mM) 200-3.12, rep-1, rep-2) was 0.179 s⁻¹. For the same compound, the kon ([1]; read-out: kon(1/Ms), FAMA loaded on Anti-GST sensor, fit per sensor, Stomid Conc. (mM) 200-3.12, rep-1, rep-2) was 2070 M⁻¹ s⁻¹, the “binding to MUTE bHLH versus ACTL domain (in words)” value ([2]; BLI (Fig. 6h)) was “specifically binds to the ACTL domain” and the Response ([2]; Stomid Conc. (nM) 6.25) was 0.0607 nm. It also gave a Response ([2]; Stomid Conc. (nM) 12.5) of 0.0612 nm, a Response ([2]; Stomid Conc. (nM) 25) of 0.0712 nm and a Response ([2]; Stomid Conc. (nM) 50) of 0.0833 nm. It also gave a Response ([2]; Stomid Conc. (nM) 100) of 0.0921 nm, a Response ([2]; Stomid Conc. (nM) 200) of 0.106 nm and a Kd ([3]; BLI steady state, read-out: KD (SS)) of 95.2 ± 3.8 µM. For the same compound, the Kd ([3]; BLI, read-out: KD) was 88.1 ± 1.1 µM.
